Measurements taken from patent US7256180B2 (priority 2000, dated 2007).
Read-outs that look alike come from different tables or passages of the source. {C11P} = undecylphosphate group; {Acr} = acridine group

Assays:
HSV-1 = assay type: cell-based, Herpes Simplex Virus 1; settings: BHK cells, oligonucleotide 3.0 μM
HSV-1 virus (strain L2) = assay type: cell-based, Herpes Simplex Virus 1; settings: Vero cells, 24 hours
HSV-1 (strain CI) = assay type: in vivo, mice

Free Anti-Influenza: AGCAAAAGCAGG, equivalently modified control (5' {C11P}, 3' {Acr}, sugars by position and backbone not given here)
HSV-1 Infectious Titre (CPE50/ml) (n = 7) (HSV-1): 9 (±2) × 10^3 CPE50/ml
HSV-1 Infectious Titre (CPE50/ml) (n = 7) (HSV-1 virus (strain L2); oligo conc. 0.2 μM): 1.1 (±0.4) × 10^6 CPE50/ml
HSV-1 Infectious Titre (CPE50/ml) (n = 7) (HSV-1 virus (strain L2); oligo conc. 1.0 μM): 0.9 (±0.2) × 10^6 CPE50/ml
HSV-1 Infectious Titre (CPE50/ml) (n = 7) (HSV-1 virus (strain L2); oligo conc. 5.0 μM): 0.6 (±0.3) × 10^6 CPE50/ml
Animals Survived/No. of Animals in group, Exp. 1 (HSV-1 (strain CI); mouse, in vivo, iv): 0/9
Animals Survived/No. of Animals in group, Exp. 2 (HSV-1 (strain CI); mouse, in vivo, iv): 1/10
Animals Survived/No. of Animals in group, Exp. 3 (HSV-1 (strain CI); mouse, in vivo, iv): 0/10
% Survival (HSV-1 (strain CI); over Exp. 1-3): 7.0%
